The subject of the assay is genotype A, "Long" strain RSV. Kind of assay: RSV-A assay (CPE, ATPlite readout in Hep-2 cells). In kind it is cell-based. The conditions noted are these: human respiratory syncytial virus, HEp-2, Hep-2 cells, genotype A "Long" strain RSV, MOI 0.1; read-out: Human RSV-A (“Long” strain) EC50. In a few lines:
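Hep-2 cells (8,000/well) received 2-fold serial compound dilutions in duplicate and RSV Long strain at MOI 0.1. After 5 days' incubation, cell health was read as ATP by ATPlite luminescence, with virus-only and uninfected controls defining max and minimum CPE; EC50 reported.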
Take `CC(C)(C)OC(=O)NCCOc1cc(C(=O)NC[C@](O)(c2cc3c(c(-c4ccc(F)cc4)n2)OC[C@]3(C)C(N)=O)C(F)(F)F)cc2cccnc12` [Example 355]: the half-maximal effective concentration (EC50) – broadly, the concentration that produces a half-maximal response – was > 0.2 µM.
Then `C[C@]1(C(N)=O)COc2c1cc([C@@](O)(CNC(=O)c1cc(OCCN)c3ncccc3c1)C(F)(F)F)nc2-c1ccc(F)cc1` [Example 356], with > 0.2 µM; and `CC(=O)NCCOc1cc(C(=O)NC[C@](O)(c2cc3c(c(-c4ccc(F)cc4)n2)OC[C@]3(C)C(N)=O)C(F)(F)F)cc2cccnc12` [Example 357], with > 0.2 µM.
Then `C[C@]1(C(N)=O)COc2c1cc([C@@](O)(CNC(=O)c1cc(OCCNS(C)(=O)=O)c3ncccc3c1)C(F)(F)F)nc2-c1ccc(F)cc1` [Example 358], with > 0.2 µM.
Then `C[C@]1(C(N)=O)COc2c1cc([C@@](O)(CNC(=O)c1cc(OCCNC(N)=O)c3ncccc3c1)C(F)(F)F)nc2-c1ccc(F)cc1` [Example 359], with > 0.2 µM; and `C[C@]1(C(N)=O)COc2c1cc([C@@](O)(CNC(=O)c1cc(OCCO)c3ncccc3c1)C(F)(F)F)nc2-c1ccc(F)cc1` [Example 360], with > 0.2 µM; and `COc1nccc2cc(C(=O)NC[C@](O)(c3cc4c(c(-c5ccc(F)cc5)n3)OC[C@]4(C)C(N)=O)C(F)(F)F)ccc12` [Example 362], with > 0.2 µM.
With `C[C@]1(C(N)=O)COc2c1cc([C@@](O)(CNC(=O)c1cc(OC(F)(F)C(N)=O)c3ncccc3c1)C(F)(F)F)nc2-c1ccc(F)cc1` [Example 365], the EC50 is < 0.2 µM.
Under `Cc1cnc2c(OCC(N)=O)cc(C(=O)NC[C@](O)(c3cc4c(c(-c5ccc(F)c(Cl)c5)n3)OC[C@]4(C)C(N)=O)C(F)(F)F)cc2c1` [Example 367] stands < 0.2 µM.
Under `CCc1cnc2c(OCC(N)=O)cc(C(=O)NC[C@](O)(c3cc4c(c(-c5ccc(F)cc5)n3)OC[C@]4(C)C(N)=O)C(F)(F)F)cc2c1` [Example 368] stands < 0.2 µM; under `CCc1cnc2c(OCC(N)=O)cc(C(=O)NC[C@](O)(c3cc4c(c(-c5ccc(F)c(Cl)c5)n3)OC[C@]4(C)C(N)=O)C(F)(F)F)cc2c1` [Example 369], < 0.2 µM.
Under `CC1(NC(=O)COc2cc(C(=O)NC[C@](O)(c3cc4c(c(-c5ccc(F)cc5)n3)OC[C@]4(C)C(N)=O)C(F)(F)F)cc3cccnc23)CC1` [Example 370] stands > 0.2 µM.
Consider `C[C@]1(C(N)=O)COc2c1cc([C@@](O)(CNC(=O)c1cc(OCC(=O)Nc3ccccc3)c3ncccc3c1)C(F)(F)F)nc2-c1ccc(F)cc1` [Example 371], for which the 50% effective concentration (EC50) was < 0.2 µM.
Under `CNC(=O)COc1cc(C(=O)NC[C@](O)(c2cc3c(c(-c4ccc(F)cc4)n2)OC[C@]3(C)C(N)=O)C(F)(F)F)cc2cccnc12` [Example 372] stands < 0.2 µM; under `COCCNC(=O)COc1cc(C(=O)NC[C@](O)(c2cc3c(c(-c4ccc(F)cc4)n2)OC[C@]3(C)C(N)=O)C(F)(F)F)cc2cccnc12` [Example 375], > 0.2 µM.
`C[C@]1(C(N)=O)COc2c1cc([C@@](O)(CNC(=O)c1cc(OCC(=O)NC3CC3)c3ncccc3c1)C(F)(F)F)nc2-c1ccc(F)cc1` [Example 376]: the EC50 is > 0.2 µM.
Under `CC(C)(O)CNC(=O)COc1cc(C(=O)NC[C@](O)(c2cc3c(c(-c4ccc(F)cc4)n2)OC[C@]3(C)C(N)=O)C(F)(F)F)cc2cccnc12` [Example 377] stands > 0.2 µM; under `C[C@]1(C(N)=O)COc2c1cc([C@@](O)(CNC(=O)c1cc(OCC(=O)NC[C@H](O)CO)c3ncccc3c1)C(F)(F)F)nc2-c1ccc(F)cc1` [Example 378], > 0.2 µM; under `C[C@]1(C(N)=O)COc2c1cc([C@@](O)(CNC(=O)c1cc(OCC(=O)NC[C@@H](O)CO)c3ncccc3c1)C(F)(F)F)nc2-c1ccc(F)cc1` [Example 379], > 0.2 µM.
As to `C[C@]1(C(N)=O)COc2c1cc([C@@](O)(CNC(=O)c1cc(OC3(C(N)=O)CC3)c3ncccc3c1)C(F)(F)F)nc2-c1ccc(F)cc1` [Example 381], the EC50 was > 0.2 µM.
Then `C[C@]1(C(N)=O)COc2c1cc([C@@](O)(CNC(=O)c1cc(OCC(N)=O)c3ncccc3c1)C(F)(F)F)nc2-c1ccc(F)c(Cl)c1` [Example 382], with < 0.2 µM.
Under `CC(Oc1cc(C(=O)NC[C@](O)(c2cc3c(c(-c4ccc(F)cc4)n2)OC[C@]3(C)C(N)=O)C(F)(F)F)cc2cccnc12)C(N)=O` (stereo partly shown) [Example 383] stands > 0.2 µM; under `CNc1cc(C(=O)NC[C@](O)(c2cc3c(c(-c4ccc(F)cc4)n2)OC[C@]3(C)C(N)=O)C(F)(F)F)cc2cccnc12` [Example 385], < 0.2 µM.
Then `C[C@]1(C(N)=O)COc2c1cc([C@@](O)(CNC(=O)c1cc(Oc3ccccn3)c3ncccc3c1)C(F)(F)F)nc2-c1ccc(F)cc1` [Example 386], with > 0.2 µM; and `C[C@]1(C(N)=O)COc2c1cc([C@@](O)(CNC(=O)c1cc(Oc3ncco3)c3ncccc3c1)C(F)(F)F)nc2-c1ccc(F)cc1` [Example 389], with < 0.2 µM.
In the case of `Cc1nc(COc2cc(C(=O)NC[C@](O)(c3cc4c(c(-c5ccc(F)cc5)n3)OC[C@]4(C)C(N)=O)C(F)(F)F)cc3cccnc23)co1` [Example 391], the EC50 is > 0.2 µM.
Under `C[C@]1(C(N)=O)COc2c1cc([C@@](O)(CNC(=O)c1cc(NC(=O)C3CC3)c3ncccc3c1)C(F)(F)F)nc2-c1ccc(F)cc1` [Example 392] stands < 0.2 µM.
Regarding `C[C@]1(C(N)=O)COc2c1cc([C@@](O)(CNC(=O)c1cc(NS(C)(=O)=O)c3ncccc3c1)C(F)(F)F)nc2-c1ccc(F)cc1` [Example 394], the EC50 was > 0.2 µM.
In the case of `C[C@]1(C(N)=O)COc2c1cc([C@@](O)(CNC(=O)c1cc(NS(=O)(=O)C3CC3)c3ncccc3c1)C(F)(F)F)nc2-c1ccc(F)cc1` [Example 395], the EC50 is > 0.2 µM.
Under `C[C@]1(C(N)=O)COc2c1cc([C@@](O)(CNC(=O)c1cc(NC(=O)C(F)F)c3ncccc3c1)C(F)(F)F)nc2-c1ccc(F)cc1` [Example 396] stands < 0.2 µM.
Then `C[C@]1(C(N)=O)COc2c1cc([C@@](O)(CNC(=O)c1cc(NC(=O)[C@H]3CCN3)c3ncccc3c1)C(F)(F)F)nc2-c1ccc(F)cc1` [Example 399], with > 0.2 µM; and `C[C@]1(C(N)=O)COc2c1cc([C@@](O)(CNC(=O)c1cc(NC(=O)[C@@H]3CCN3)c3ncccc3c1)C(F)(F)F)nc2-c1ccc(F)cc1` [Example 400], with > 0.2 µM; and `C[C@]1(C(N)=O)COc2c1cc([C@@](O)(CNC(=O)c1cc(NC(=O)C3CNC3)c3ncccc3c1)C(F)(F)F)nc2-c1ccc(F)cc1` [Example 401], with > 0.2 µM.
Then `Cc1ncc(C(=O)Nc2cc(C(=O)NC[C@](O)(c3cc4c(c(-c5ccc(F)cc5)n3)OC[C@]4(C)C(N)=O)C(F)(F)F)cc3cccnc23)[nH]1` [Example 402], with < 0.2 µM.
Turning to `C[C@]1(C(N)=O)COc2c1cc([C@@](O)(CNC(=O)c1cc(NC(=O)c3ncc[nH]3)c3ncccc3c1)C(F)(F)F)nc2-c1ccc(F)cc1` [Example 403], the concentration giving a half-maximal response (EC50) is < 0.2 µM.
Then `C[C@]1(C(N)=O)COc2c1cc([C@@](O)(CNC(=O)c1cc(NC(=O)c3cnn[nH]3)c3ncccc3c1)C(F)(F)F)nc2-c1ccc(F)cc1` [Example 404], with > 0.2 µM; and `C[C@@H](O)COc1ccc2cc(C(=O)NC[C@](O)(c3cc4c(c(-c5ccc(F)cc5)n3)OC[C@]4(C)C(N)=O)C(F)(F)F)cc(OC3CC3)c2n1` [Example 405], with > 0.2 µM.

The values are drawn from patent publication US11505558B1, “Antiviral heterocyclic compounds” (Enanta Pharmaceuticals, Inc., priority 2019, dated 2022).
